# Source: ChEMBL document CHEMBL5252590, “Structure-based design of novel melanin-concentrating hormone receptor-1 ligands based on saturated nitrogen-containing heterocycles” (Bioorg Med Chem Lett, 2023)
# Assay: Displacement of [125I]MCH from MCHR1 expressed in CHO cell membranes assessed as inhibition constant
# Design: species or system Cricetulus griseus, Membrane
# Conditions: not given; call rule not given here
row,SMILES,Ki
1,O=C(c1ccc(-c2ccccc2)cc1)N1CCCC12CCCN(Cc1ccc3ccccc3c1)C2 (configuration not stated),Not Active

# Same assay, conditions: read-out: Ki
row,SMILES,Ki
1,COc1cc(OC)cc(C(=O)N[C@@H]2CCN(C/C=C/c3ccccc3)C2)c1,17 nM
2,COc1cc(OC)cc(C(=O)N[C@@H]2CCN(Cc3ccc4ccccc4c3)C2)c1,7 nM
3,O=C(N[C@@H]1CCN(Cc2ccc3ccccc3c2)C1)c1ccc(F)c(Cl)c1,136 nM
4,O=C(/C=C/c1ccc(F)cc1)N[C@@H]1CCN(Cc2ccc3ccccc3c2)C1,936 nM
5,O=C(N[C@@H]1CCN(Cc2ccc3ccccc3c2)C1)c1ccc(F)c(F)c1,208 nM
6,O=C(c1ccc(F)c(Cl)c1)N1CCC2(CCCN(Cc3ccc4c(c3)OCO4)C2)C1 (configuration not stated),2500 nM
7,O=C(COc1ccc(Cl)cc1)N1CCC2(CCCN(Cc3ccc4c(c3)OCO4)C2)C1 (configuration not stated),2560 nM
8,Cc1ccc2c(C)c(C(=O)N[C@@H]3CCN(Cc4ccc5ccccc5c4)C3)oc2c1,2640 nM
9,COc1cc(OC)cc(C(=O)N[C@@H]2CCN(Cc3ccc4c(c3)OCO4)C2)c1,61.8 nM
10,O=C(N[C@@H]1CCN(Cc2ccc3ccccc3c2)C1)c1ccc(Br)cc1,103 nM
11,O=C(N[C@@H]1CCN(Cc2ccc3ccccc3c2)C1)c1ccc(-c2ccc(C(F)(F)F)cc2)s1,3080 nM
12,O=C(N[C@@H]1CCN(Cc2ccc3ccccc3c2)C1)c1ccccc1,448 nM
13,O=C(COc1ccc(Cl)cc1)N[C@@H]1CCN(Cc2ccc3ccccc3c2)C1,271 nM
14,COc1cc(NC(=O)CC2CCCN(Cc3ccc4ccccc4c3)C2)cc(OC)c1 (configuration not stated),1690 nM
15,COc1cccc(-c2ccc(C(=O)N[C@@H]3CCN(Cc4ccc5ccccc5c4)C3)cc2)c1,4190 nM
16,COc1cc(OC)cc(C(=O)N2CCC3(CCCN(Cc4ccc5ccccc5c4)C3)C2)c1 (configuration not stated),330 nM
17,O=C(N[C@@H]1CCN(Cc2ccc3ccccc3c2)C1)c1ccc(-c2ccc(F)cc2)cc1,1840 nM
18,O=C(COc1ccc(Cl)cc1)N1CCCC12CCCN(Cc1ccc3ccccc3c1)C2 (configuration not stated),2610 nM
19,O=C(c1ccc(F)c(F)c1)N1CCC2(CCCN(Cc3ccc4ccccc4c3)C2)C1 (configuration not stated),1900 nM
20,COc1cc(OC)cc(C(=O)NC[C@H]2CCN(Cc3ccc4ccccc4c3)C2)c1,105 nM
21,O=C(N[C@@H]1CCN(Cc2ccc3ccccc3c2)C1)c1ccc(Br)s1,202 nM
